According to patent US20230404893A1, “Oral Care Compositions Comprising Ascorbic Acid Derivatives” (Colgate-Palmolive Company, priority 2020, published 2023):

Tests used:
[1] = Standard brushing study, Toothpaste F samples (starting L 57.3-66.3, twelve teeth per cell); design: species or system bovine; conditions: ΔW data of Table 14, Toothpaste F
Description: Bovine enamel teeth mounted individually in resin blocks are purchased and brushed with an abrasive paste until initial “L” values were 56-68. Trays are prepared for the brushing machine and each tray consists of six teeth mounted using 3D printed trays. Baseline optical measurements of the bovine teeth are taken using a spectrophotometer and the trays are loaded onto the brushing machine.
Toothbrushes are placed on the brushing machine by removing the head of a manual toothbrush from its handle. Slurry composed of 1:1 ratio by weight of test toothpaste to artificial saliva is prepared and added to each tray. The teeth are brushed for two minutes with 250 grams of pressure at 120 strokes per minute. After brushing is stopped, the slurry is removed and residual toothpaste is rinsed away with deionized water. The brushing treatment is repeated a total of 14 times and measurements are taken every 2 cycles. The teeth are then gently blotted with a paper towel to remove excess liquid and measurements are taken with the spectrophotometer. […] The “L”, “a”, and “b” values are determined and are used to calculate the change in whiteness “ΔW” for each tooth after the treatment. […]

[2] = Color of toothpaste samples measured with a spectrophotometer (L*, a*, b*); assay type: physicochemical; conditions: basic toothpaste formulas with sodium ascorbyl phosphate, with/without sodium stearate
Description: To overcome this color issue, surfactants are added to the basic toothpaste formulas in combination with sodium ascorbyl phosphate. Table 15 describes one basic toothpaste formula, to which sodium ascorbyl phosphate and surfactants are added. Three surfactants, sodium stearate, sodium cocoyl glutamate and sodium lauryl isoethionate, are screened, alone and in different combinations with/without sodium ascorbyl phosphate.
Samples of basic toothpaste G with different amounts and combinations of surfactants with/without sodium ascorbyl phosphate are prepared and evaluated for color, as shown in Table 16. A high “b*” value indicates a more yellow color while a lower value indicates a more blue color. A high “L*” value indicates a whiter sample compared to a low “L*” value which indicates a darker sample. As can be observed in Table 16 samples without sodium stearate that incorporate sodium ascorbyl phosphate tends to increase the “b*” value, indicating a more yellow color. Samples that incorporate sodium stearate with sodium ascorbyl phosphate tend to have a relative reduction in “b*” value, indicating less yellow color.

Compound: O=C1O[C@H]([C@@H](O)CO)C([O-])=C1OP(=O)([O-])[O-].[Na+].[Na+].[Na+] [sodium ascorbyl phosphate]
- whitening efficacy (in words) [1]: significant effect on whitening efficacy
- color of the toothpaste (in words) [2]: observable yellow color
